Data reported in patent publication US20200172549A1, “NOVEL CHLORIN E6-CURCUMIN DERIVATIVES, PREPARATION METHOD THEREOF, AND PHARMACEUTICAL COMPOSITION CONTAINING THE SAME FOR TREATMENT OF CANCER” (DONG SUNG PHARM. CO., LTD., priority 2017, published 2020).

Legend:
[1] = Dark cytotoxicity, MTT assay, AsPC-1; assay type: cell-based; conditions: human, AsPC-1 pancreatic cancer cells, 3 h, no light, 72 h incubation, read-out: Cell viability, Dark Cytotoxicity against AsPC-1; for viability at 3.12 μM: 3.12 μM photosensitizer; for viability at 6.25 μM: 6.25 μM photosensitizer; for viability at 12.5 μM: 12.5 μM photosensitizer; for viability at 25 μM: 25 μM photosensitizer; for viability at 50 μM: 50 μM photosensitizer
Method: (§1) Dark cytotoxicity: The culture of AsPC-1 pancreatic cancer cells were grown in RPMI-1640 medium (life technologies corporation, USA) supplemented with 10% heat-inactivated fetal bovine serum (life technologies corporation, USA) and 1 penicillin (life technologies corporation, USA), whereas MIA-paca2 and PANC-1 cells were grown in DMEM. The MTT assay was used to assess the cell viability of AsPC-1, MIA-paca2, PANC-1 cells. The cells attached to a 96-well plate (5,000 cells/well) were treated with 3.125 μM, 6.25 μM, 12.5 μM, 25 μM, 50 μM of photosensitizers, 7, 10, 13, 16, and 3 for 3 h. The cells were then incubated for 72 h at 37° C. in a 5% CO2 incubator and exposed to MTT [3-(4,5-dimethylthiazol-2-yl)-2,5-diphenyl-tetrazolium bromide] (250 μg/ml) for 3 h. The solution was changed to 200 μl of dimethylsulfoxide (DMSO, Sigma). After 30 min incubation and shaking in microplate mixer, the optical density (OD) was measured using a microplate reader (Thermo Fisher scientific, USA) at 570 nm wavelength. The cell viability was calculated using the following formula: Cell viability (%)=Mean optical density of treated wells/Mean optical density of control wells×100.

[2] = Dark cytotoxicity, MTT assay, MIA-PaCa-2; assay type: cell-based; conditions: human, MIA-PaCa-2 cells, 3 h, no light, 72 h incubation, read-out: Cell viability, Dark cytotoxicity against MIA-PaCa-2; for viability at 3.12 μM: 3.12 μM photosensitizer; for viability at 6.25 μM: 6.25 μM photosensitizer; for viability at 12.5 μM: 12.5 μM photosensitizer; for viability at 25 μM: 25 μM photosensitizer; for viability at 50 μM: 50 μM photosensitizer
Method: as §1

[3] = test system: AsPC-1 pancreatic cancer cells; assay: Phototoxicity (PDT), MTT assay, AsPC-1; assay type: cell-based; conditions: for Cell viability, Phototoxicity against AsPC-1: 3 h, 50 mW 0.09 J/cm^2 laser 100 sec, 72 h incubation; for inhibition at 25 µM: 25 μM concentration
Method: as §1, with “Phototoxicity: The culture” for “Dark cytotoxicity: The culture”, “USA) and 1% penicillin (life” for “USA) and 1 penicillin (life”, “3 h. The photosensitized cells were then irradiated with a 50 mW, 0.09 J/cm^2 laser for 100 sec. The cells” for “3 h. The cells”

PANC-1 = assay: Phototoxicity (PDT), MTT assay, PANC-1; assay type: cell-based; conditions: for Cell viability, Phototoxicity against PANC-1: 3 h, 50 mW 0.09 J/cm^2 laser 100 sec, 72 h incubation; for inhibition at 25 µM: 25 μM concentration
Method: as §1, with “Phototoxicity: The culture” for “Dark cytotoxicity: The culture”, “USA) and 1% penicillin (life” for “USA) and 1 penicillin (life”, “3 h. The photosensitized cells were then irradiated with a 50 mW, 0.09 J/cm^2 laser for 100 sec. The cells” for “3 h. The cells”

MIA-PaCa-2 = assay: Phototoxicity (PDT), MTT assay, MIA-PaCa-2; assay type: cell-based; conditions: for Cell viability, Phototoxicity against MIA-PaCa-2: 3 h, 50 mW 0.09 J/cm^2 laser 100 sec, 72 h incubation
Method: as §1, with “Phototoxicity: The culture” for “Dark cytotoxicity: The culture”, “USA) and 1% penicillin (life” for “USA) and 1 penicillin (life”, “3 h. The photosensitized cells were then irradiated with a 50 mW, 0.09 J/cm^2 laser for 100 sec. The cells” for “3 h. The cells”

[4] = Photophysical properties (absorption) in DMSO; assay type: physicochemical
Method: The photophysical properties of Ce6-curcumin conjugates and dimethyl ester ce6 were analyzed in dimethyl sulfoxide (DMSO). All the photosensitizers 7, 10, 13, and 16 (Formula IV) effectively absorbed the red light compared to dimethyl ester ce6. The major soret peak at λmax=405-408 nm and Q-bands at 667 nm for the photosensitizers 7, 10, 13, and 16 (Formula IV) and Q band peak at 656 for dimethyl ester ce6.

[5] = Homo sapiens, ASPC1, with light
[6] = Homo sapiens, PANC-1, with light

Row | Compound | viability at 3.12 μM [1] [%] | viability at 6.25 μM [1] [%] | viability at 12.5 μM [1] [%] | viability at 25 μM [1] [%] | viability at 50 μM [1] [%] | viability at 3.12 μM [2] [%] | viability at 6.25 μM [2] [%] | viability at 12.5 μM [2] [%] | viability at 25 μM [2] [%] | viability at 50 μM [2] [%] | Cell viability, Phototoxicity against AsPC-1 ([3]; 3.12 μM photosensitizer) [%] | Cell viability, Phototoxicity against AsPC-1 ([3]; 6.25 μM photosensitizer) [%] | Cell viability, Phototoxicity against AsPC-1 ([3]; 12.5 μM photosensitizer) [%] | Cell viability, Phototoxicity against AsPC-1 ([3]; 25 μM photosensitizer) [%] | Cell viability, Phototoxicity against AsPC-1 ([3]; 50 μM photosensitizer) [%] | Cell viability, Phototoxicity against PANC-1 (PANC-1; 3.12 μM photosensitizer) [%] | Cell viability, Phototoxicity against PANC-1 (PANC-1; 6.25 μM photosensitizer) [%] | Cell viability, Phototoxicity against PANC-1 (PANC-1; 12.5 μM photosensitizer) [%] | Cell viability, Phototoxicity against PANC-1 (PANC-1; 25 μM photosensitizer) [%] | Cell viability, Phototoxicity against PANC-1 (PANC-1; 50 μM photosensitizer) [%] | further results
1 | C=Cc1c(C)c2cc3nc(c(CC(=O)O)c4[nH]c(cc5nc(cc1[nH]2)C(C)=C5CC)c(C)c4C(=O)O)[C@@H](CCC(=O)O)[C@@H]3C [Compound 3, Chlorin e6] | 98.8 | 101 | 100 | 99.6 | 100 | 98.8 | 101 | 100 | 99.6 | 100 | 91.05 | 76.65 | 66.31 | 37.32 | 17.52 | 104.37 | 82.85 | 30.03 | 8.57 | 7.61 | inhibition at 25 µM [3, 5]: 63%; inhibition at 25 µM (PANC-1; [6]): 91%
2 | C=Cc1c(C)c2cc3nc(c(CC(=O)OC)c4[nH]c(cc5nc(cc1[nH]2)C(C)=C5CC)c(C)c4C(=O)NCCCCCCNC(=O)CCCC(=O)Oc1ccc(/C=C/C(=O)CC(=O)/C=C/c2ccc(O)c(OC)c2)cc1OC)C(CCC(=O)OC)C3C (centres unmarked) [Compound 10, Chlorine e6-curcumin Conjugate (10)] | 96.5 | 98.2 | 98.5 | 95 | 78.8 | 89.7 | 82 | 75.1 | 66.4 | 48.7 | 85.90 | 75.12 | 34.05 | 26.11 | 23.17 | 99.74 | 96.76 | 81.89 | 81.07 | 73.00 | Cell viability, Phototoxicity against MIA-PaCa-2 (MIA-PaCa-2; 3.12 μM photosensitizer): 94.15%; Cell viability, Phototoxicity against MIA-PaCa-2 (MIA-PaCa-2; 6.25 μM photosensitizer): 90.03%; Cell viability, Phototoxicity against MIA-PaCa-2 (MIA-PaCa-2; 12.5 μM photosensitizer): 85.20%; Cell viability, Phototoxicity against MIA-PaCa-2 (MIA-PaCa-2; 25 μM photosensitizer): 64.88%; Cell viability, Phototoxicity against MIA-PaCa-2 (MIA-PaCa-2; 50 μM photosensitizer): 48.21%; Q-band peak [4]: 667 nm
3 | C=Cc1c(C)c2cc3nc(c(CC(=O)OC)c4[nH]c(cc5nc(cc1[nH]2)C(C)=C5CC)c(C)c4C(=O)NCCOCCOCCNC(=O)CCCC(=O)Oc1ccc(/C=C/C(=O)CC(=O)/C=C/c2ccc(O)c(OC)c2)cc1OC)C(CCC(=O)OC)C3C (centres unmarked) [Compound 13, Chlorine e6-curcumin Conjugate (13)] | 105 | 108 | 106 | 98.5 | 78.7 | 114 | 115 | 114 | 96.3 | 66.8 | 7.34 | 6.61 | 6.48 | 6.58 | 6.58 | 8.51 | 7.71 | 7.53 | 8.04 | 7.28 | inhibition at 3 µM ([3]; Homo sapiens, ASPC1, 3 μM concentration, with light): > 90%; Cell viability, Phototoxicity against MIA-PaCa-2 (MIA-PaCa-2; 3.12 μM photosensitizer): 4.68%; Cell viability, Phototoxicity against MIA-PaCa-2 (MIA-PaCa-2; 6.25 μM photosensitizer): 5.07%; Cell viability, Phototoxicity against MIA-PaCa-2 (MIA-PaCa-2; 12.5 μM photosensitizer): 4.93%; Cell viability, Phototoxicity against MIA-PaCa-2 (MIA-PaCa-2; 25 μM photosensitizer): 5.39%; Cell viability, Phototoxicity against MIA-PaCa-2 (MIA-PaCa-2; 50 μM photosensitizer): 5.90%; inhibition at 3 µM (MIA-PaCa-2; Homo sapiens, MIA PaCa-2, 3 μM concentration, with light): > 90%; inhibition at 3 µM (PANC-1; Homo sapiens, PANC-1, 3 μM concentration, with light): > 90%; Q-band peak [4]: 667 nm
4 | C=Cc1c(C)c2cc3nc(c(CC(=O)OC)c4[nH]c(cc5nc(cc1[nH]2)C(C)=C5CC)c(C)c4C(=O)NCCCOCCOCCOCCCNC(=O)CCCC(=O)Oc1ccc(/C=C/C(=O)CC(=O)/C=C/c2ccc(O)c(OC)c2)cc1OC)[C@@H](CCC(=O)OC)[C@@H]3C [Compound 16, Chlorine e6-curcumin Conjugate (16)] | 99.9 | 103 | 103 | 80.4 | 84.1 | 122 | 121 | 113 | 101 | 72.8 | 87.29 | 45.79 | 32.67 | 25.46 | 27.83 | 97.36 | 89.19 | 59.07 | 24.07 | 20.24 | inhibition at 25 µM [3, 5]: 75%; Cell viability, Phototoxicity against MIA-PaCa-2 (MIA-PaCa-2; 3.12 μM photosensitizer): 80.67%; Cell viability, Phototoxicity against MIA-PaCa-2 (MIA-PaCa-2; 6.25 μM photosensitizer): 17.62%; Cell viability, Phototoxicity against MIA-PaCa-2 (MIA-PaCa-2; 12.5 μM photosensitizer): 9.49%; Cell viability, Phototoxicity against MIA-PaCa-2 (MIA-PaCa-2; 25 μM photosensitizer): 8.03%; Cell viability, Phototoxicity against MIA-PaCa-2 (MIA-PaCa-2; 50 μM photosensitizer): 9.67%; inhibition at 25 µM (MIA-PaCa-2; Homo sapiens, MIA PaCa-2, 25 μM concentration, with light): 92%; inhibition at 25 µM (PANC-1; [6]): 76%; Q-band peak [4]: 667 nm
5 | Dimethylester of Chlorine e6 [dimethyl ester ce6] | – | – | – | – | – | – | – | – | – | – | – | – | – | – | – | – | – | – | – | – | Q-band peak [4]: 656 nm
